Laboratory results taken from patent US8916499B2, “Herbicidal compositions comprising 4-amino-3-chloro-5-fluoro-6-(4-chloro-2-fluoro-3-methoxyphenyl) pyridine-2-carboxylic acid or a derivative thereof and a protoporphyrinogen oxidase inhibitor” (Dow AgroSciences LLC, priority 2012, dated 2014).
Several values for one entry are separate records, joined by “and”; a condition that tells them apart may be missing. Equal values may be shown once.

Tests used:
CYPRO = test: In-water applied weed control, transplanted paddy rice, greenhouse (Example II); assay type: in vivo, Cyperus rotundus L.
ECHOR = test: as above; assay type: in vivo, Echinochloa oryzoides (Ard.) Fritsch
LEFCH [1] = test: Postemergence foliar-applied weed control, direct seeded rice, greenhouse (Example I); assay type: in vivo, Leptochloa chinensis (L.) Nees; settings: g ae/ha Compound A Benzyl Ester+g ai/ha saflufenacil: r26 8.75+0, r27 17.5+0, r28 0+5, r29 0+10, r30 8.75+5, r31 17.5+5, r32 8.75+10, r33 17.5+10
PAPRH = test: Postemergence foliar herbicidal activity of mixtures in cereal crops, greenhouse (Example III); assay type: in vivo, Papaver rhoeas L.; settings: foliar-applied
Description: Seeds of the desired test plant species were planted in Sun Gro MetroMix® 306 planting mixture, which typically has a pH of 6.0 to 6.8 and an organic matter content of about 30 percent, in plastic pots with a surface area of 103.2 square centimeters (cm^2). When required to ensure good germination and healthy plants, a fungicide treatment and/or other chemical or physical treatment was applied. The plants were grown for 7-36 days in a greenhouse with an approximate 14 hour photoperiod which was maintained at about 18° C. during the day and about 17° C. during the night. Nutrients and water were added on a regular basis and supplemental lighting was provided with overhead metal halide 1000-Watt lamps as necessary. The plants were employed for testing when they reached the second or third true leaf stage.
Treatments consisted of the benzyl ester of 4-amino-3-chloro-5-fluoro-6-(4-chloro-2-fluoro-3-methoxy-phenyl)pyridine-2-carboxylic acid (Compound A), formulated as an SC, a second cereal herbicide alone and then both in combination.
Other herbicidal components were applied on an active ingredient basis and included PSII-inhibiting herbicides.
Measured aliquots of benzyl ester of 4-amino-3-chloro-5-fluoro-6-(4-chloro-2-fluoro-3-methoxy-phenyl)pyridine-2-carboxylic acid (Compound A) were placed in 25 milliliter (mL) glass vials and diluted in a volume of 1.25% (v/v) Agri-Dex® crop oil concentrate to obtain stock solutions. Compound requirements are based upon a 12 mL application volume at a rate of 187 liters per hectare (L/ha). Spray solutions of the second cereal herbicide and experimental compound mixtures were prepared by adding the stock solutions to the appropriate amount of dilution solution to form 12 mL spray solution with active ingredients in two- and three-way combinations. Formulated compounds were applied to the plant material with an overhead Mandel track sprayer equipped with an 8002E nozzle calibrated to deliver 187 L/ha over an application area of 0.503 square meters (m^2) at a spray height of 18 inches (46 cm) above average plant canopy. Control plants were sprayed in the same manner with the solvent blank.
The treated plants and control plants were placed in a greenhouse as described above and watered by sub-irrigation to prevent wash-off of the test compounds. After 20-22 days, the condition of the test plants as compared with that of the control plants was determined visually and scored on a scale of 0 to 100 percent where 0 corresponds to no injury and 100 corresponds to complete kill.
Colby's equation was used to determine the herbicidal effects expected from the mixtures (Colby, S. R. 1967. Calculation of the synergistic and antagonistic response of herbicide combinations. Weeds 15:20-22.).
The following equation was used to calculate the expected activity of mixtures containing two active ingredients, A and B: Expected=A+B−(A×B/100)

CYPIR = test: Postemergence foliar-applied weed control, direct seeded rice, greenhouse (Example I); assay type: in vivo, Cyperus iria L.
SCPMA = test: In-water applied weed control, transplanted paddy rice, greenhouse (Example II); assay type: in vivo
LEFCH [2] = test: as above; assay type: in vivo, Leptochloa chinensis (L.) Nees
ECHCG = test: Postemergence foliar-applied weed control, direct seeded rice, greenhouse (Example I); assay type: in vivo, Echinochloa crusgalli (L.) Beauv.
[3] = g ae/ha Compound A Benzyl Ester+g ai/ha carfentrazone-ethyl: r11 8.75+0, r12 0+3.5, r13 0+7, r14 0+14, r15 8.75+3.5, r16 8.75+7, r17 8.75+14

With `COc1c(Cl)ccc(-c2nc(C(=O)OCc3ccccc3)c(Cl)c(N)c2F)c1F` [Compound A Benzyl Ester, benzyl ester of 4-amino-3-chloro-5-fluoro-6-(4-chloro-2-fluoro-3-methoxy-phenyl)pyridine-2-carboxylic acid] the “Visual Weed Control (%) - 21 DAA CYPRO Obs” value (CYPRO; 4.38 g ae/ha alone) was 30%, the “Visual Weed Control (%) - 21 DAA CYPRO Obs” value (CYPRO; 8.75 g ae/ha alone) was 60% and the “Visual Weed Control (%) - 21 DAA CYPRO Obs” value (CYPRO; g ae/ha Compound A Benzyl Ester+g ai/ha oxyfluorfen (SC): r11 32+0, r12 0+135, r13 0+270, r14 32+135, r15 32+270) was 90%. The “Visual Weed Control (%) - 20 DAA CYPRO Obs” value (CYPRO; g ae/ha Compound A Benzyl Ester+g ai/ha pyraclonil: r19 4.38+0, r20 8.75+0, r21 0+45, r22 0+90, r23 4.38+45, r24 8.75+45, r25 4.38+90, r26 8.75+90) was 20%, the “Visual Weed Control (%) - 20 DAA ECHOR Obs” value (ECHOR; 4.38 g ae/ha alone) was 10% and the “Visual Weed Control (%) - 21 DAA ECHOR Obs” value (ECHOR; 8 g ae/ha alone) was 20%. For the same compound, the “Visual Weed Control (%) - 20 DAA ECHOR Obs” value (ECHOR; 8.75 g ae/ha alone) was 15%, the “Visual Weed Control (%) - 21 DAA ECHOR Obs” value (ECHOR; 8.75 g ae/ha alone) was 25% and the “Visual Weed Control (%) - 21 DAA ECHOR Obs” value (ECHOR; 16 g ae/ha alone) was 45%. For the same compound, the “Visual Weed Control (%) - 21 DAA ECHOR Obs” value (ECHOR; 17.5 g ae/ha alone) was 60%, the “Visual Weed Control (%) - 21 DAA ECHOR Obs” value (ECHOR; 32 g ae/ha alone) was 60% and the “Visual Weed Control (%) - 20 DAA LEFCH Obs” value (LEFCH [1]) was 30% and 50%. The “Visual Weed Control (%) - 21 DAA PAPRH Obs” value (PAPRH; 5 g ai/ha alone) was 28%, the “Visual Weed Control (%) - 21 DAA PAPRH Obs” value (PAPRH; 10 g ai/ha alone) was 35% and the “Visual Weed Control (%) - 21 DAA CYPIR Obs” value (CYPIR; g ae/ha Compound A Benzyl Ester+g ai/ha bifenox (Fox ®): r17 8+0, r18 0+180, r19 0+360, r20 0+720, r21 8+180, r22 8+360, r23 8+720) was 30%. The “Visual Weed Control (%) - 21 DAA CYPIR Obs” value (CYPIR; [3]) was 85%, the “Visual Weed Control (%) - 21 DAA CYPIR Obs” value (CYPIR; g ae/ha Compound A Benzyl Ester+g ai/ha oxyfluorfen (technical): r27 4.38+0, r28 0+90, r29 0+180, r30 0+360, r31 4.38+90, r32 4.38+180, r33 4.38+360) was 30% and the “Visual Weed Control (%) - 21 DAA CYPIR Obs” value (CYPIR; g ae/ha Compound A Benzyl Ester+g ai/ha pyraflufen-ethyl: r17 8+0, r18 0+2.65, r19 0+5.3, r20 0+10.6, r21 8+2.65, r22 8+5.3, r23 8+10.6) was 35%. The “Visual Weed Control (%) - 20 DAA CYPIR Obs” value (CYPIR; g ae/ha Compound A Benzyl Ester+g ai/ha saflufenacil: r38 4.38+0, r39 0+5, r40 0+10, r41 0+20, r42 4.38+5, r43 4.38+10, r44 4.38+20) was 70%, the “Visual Weed Control (%) - 21 DAA SCPMA Obs” value (SCPMA; 48 g ae/ha alone) was 0% and the “Visual Weed Control (%) - 21 DAA SCPMA Obs” value (SCPMA; 96 g ae/ha alone) was 0%. The “Visual Weed Control (%) - 20 DAA LEFCH Obs” value (LEFCH [2]; 4.38 g ae/ha alone) was 0%, the “Visual Weed Control (%) - 20 DAA LEFCH Obs” value (LEFCH [2]; 8.75 g ae/ha alone) was 20% and the “Visual Weed Control (%) - 20 DAA LEFCH Obs” value (LEFCH [2]; 17.5 g ae/ha alone) was 30%. For the same compound, the “Visual Weed Control (%) - 21 DAA ECHCG Obs” value (ECHCG; [3]) was 55%, the “Visual Weed Control (%) - 23 DAA ECHCG Obs” value (ECHCG; g ae/ha Compound A Benzyl Ester+g ai/ha oxyfluorfen (SC): r25 4.38+0, r26 0+90, r27 0+180, r28 0+360, r29 4.38+90, r30 4.38+180, r31 4.38+360) was 40% and the “Visual Weed Control (%) - 21 DAA ECHCG Obs” value (ECHCG; g ae/ha Compound A Benzyl Ester+g ai/ha pyraflufen-ethyl: r11 8+0, r12 0+5.3, r13 0+10.6, r14 8+5.3, r15 8+10.6) was 45%.
